Measurements as given in PubChem BioAssay (NCI).
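Briefly, cells in 96-well plates were exposed to five compound concentrations for 48 h, and endpoints were estimated by linear interpolation. GI50 marks 50% less growth. Definition used: TGI = concentration required for complete inhibition of growth.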

Tests used:
Test in all cases: NCI-60 cell line screen, 48 h
OVCAR-4 ovarian = test system: OVCAR-4 ovarian
EKVX NSCLC = test system: EKVX NSCLC
COLO 205 colon = test system: COLO 205 colon
OVCAR-5 ovarian = test system: OVCAR-5 ovarian
SK-OV-3 ovarian = test system: SK-OV-3 ovarian
CAKI-1 renal = test system: CAKI-1 renal
A498 renal = test system: A498 renal
CCRF-CEM leukemia = test system: CCRF-CEM leukemia
A549 NSCLC = test system: A549 NSCLC
ACHN renal = test system: ACHN renal
RPMI-8226 leukemia = test system: RPMI-8226 leukemia
SK-MEL-28 melanoma = test system: SK-MEL-28 melanoma
SN12C renal = test system: SN12C renal
OVCAR-3 ovarian = test system: OVCAR-3 ovarian
NCI-H226 lung = test system: NCI-H226 lung
MDA-MB-435 = test system: MDA-MB-435
KM12 colon = test system: KM12 colon
MOLT-4 leukemia = test system: MOLT-4 leukemia
DU-145 prostate = test system: DU-145 prostate
HL-60(TB) leukemia = test system: HL-60(TB) leukemia
SNB-19 CNS = test system: SNB-19 CNS
786-0 renal = test system: 786-0 renal
TK-10 renal = test system: TK-10 renal
SW-620 colon = test system: SW-620 colon
UACC-62 melanoma = test system: UACC-62 melanoma
SK-MEL-2 melanoma = test system: SK-MEL-2 melanoma
NCI/ADR-RES ovarian = test system: NCI/ADR-RES ovarian
IGROV1 ovarian = test system: IGROV1 ovarian
UACC-257 melanoma = test system: UACC-257 melanoma
HCT-15 colon = test system: HCT-15 colon
M14 melanoma = test system: M14 melanoma
SNB-75 CNS = test system: SNB-75 CNS
OVCAR-8 ovarian = test system: OVCAR-8 ovarian
NCI-H460 lung = test system: NCI-H460 lung
SF-268 CNS = test system: SF-268 CNS
NCI-H23 lung = test system: NCI-H23 lung
MALME-3M melanoma = test system: MALME-3M melanoma
HCC-2998 colon = test system: HCC-2998 colon
U251 CNS = test system: U251 CNS
HOP-62 NSCLC = test system: HOP-62 NSCLC
SK-MEL-5 melanoma = test system: SK-MEL-5 melanoma
PC-3 prostate = test system: PC-3 prostate
T-47D breast = test system: T-47D breast
SF-295 CNS = test system: SF-295 CNS
SF-539 CNS = test system: SF-539 CNS
HT29 colon = test system: HT29 colon
HCT-116 colon = test system: HCT-116 colon
MCF7 breast = test system: MCF7 breast
HOP-92 NSCLC = test system: HOP-92 NSCLC
LOX IMVI melanoma = test system: LOX IMVI melanoma
MDA-MB-231 breast = test system: MDA-MB-231 breast
NCI-H522 lung = test system: NCI-H522 lung
K-562 leukemia = test system: K-562 leukemia
UO-31 renal = test system: UO-31 renal
HS 578T breast = test system: HS 578T breast
SR leukemia = test system: SR leukemia
RXF 393 renal = test system: RXF 393 renal

CN(C)c1ccc(/C=c2/c3ccccc3n3c2cc(C24CC5CC(CC(C5)C2)C4)[n+]3C)cc1
TGI (OVCAR-4 ovarian): 0.731 µM | TGI (EKVX NSCLC): 1.58 µM | TGI (COLO 205 colon): 0.32 µM | TGI (OVCAR-5 ovarian): 1.61 µM | TGI (SK-OV-3 ovarian): 1.48 µM | TGI (CAKI-1 renal): 1.04 µM | TGI (A498 renal): 1.08 µM | TGI (CCRF-CEM leukemia): > 100 µM | TGI (A549 NSCLC): 1.09 µM | TGI (ACHN renal): 1.23 µM | TGI (RPMI-8226 leukemia): > 100 µM | TGI (SK-MEL-28 melanoma): 2.16 µM | TGI (SN12C renal): 1.12 µM | TGI (OVCAR-3 ovarian): 1.6 µM | TGI (NCI-H226 lung): 1.49 µM | TGI (MDA-MB-435): 0.694 µM | TGI (KM12 colon): 0.405 µM | TGI (MOLT-4 leukemia): > 100 µM | TGI (DU-145 prostate): 1.84 µM | TGI (HL-60(TB) leukemia): 0.666 µM | TGI (SNB-19 CNS): 1.36 µM | TGI (786-0 renal): 0.658 µM | TGI (TK-10 renal): 1.65 µM | TGI (SW-620 colon): 1.44 µM

COc1ccc(NC(C)=O)cc1C1CCC(=O)N1 (configuration not stated)
TGI (OVCAR-4 ovarian): > 100 µM | TGI (EKVX NSCLC): > 100 µM | TGI (UACC-62 melanoma): > 100 µM | TGI (SK-MEL-2 melanoma): > 100 µM | TGI (NCI/ADR-RES ovarian): > 100 µM | TGI (IGROV1 ovarian): > 100 µM | TGI (UACC-257 melanoma): > 100 µM | TGI (COLO 205 colon): > 100 µM | TGI (OVCAR-5 ovarian): > 100 µM | TGI (HCT-15 colon): > 100 µM | TGI (M14 melanoma): > 100 µM | TGI (SK-OV-3 ovarian): > 100 µM | TGI (SNB-75 CNS): > 100 µM | TGI (CAKI-1 renal): > 100 µM | TGI (A498 renal): > 100 µM | TGI (OVCAR-8 ovarian): > 100 µM | TGI (NCI-H460 lung): > 100 µM | TGI (SF-268 CNS): > 100 µM | TGI (CCRF-CEM leukemia): > 100 µM | TGI (A549 NSCLC): > 100 µM | TGI (ACHN renal): > 100 µM | TGI (NCI-H23 lung): > 100 µM | TGI (RPMI-8226 leukemia): > 100 µM | TGI (MALME-3M melanoma): > 100 µM | TGI (SK-MEL-28 melanoma): > 100 µM | TGI (SN12C renal): > 100 µM | TGI (HCC-2998 colon): > 100 µM | TGI (U251 CNS): > 100 µM | TGI (OVCAR-3 ovarian): > 100 µM | TGI (HOP-62 NSCLC): > 100 µM | TGI (SK-MEL-5 melanoma): > 100 µM | TGI (PC-3 prostate): > 100 µM | TGI (T-47D breast): > 100 µM | TGI (NCI-H226 lung): > 100 µM | TGI (MDA-MB-435): > 100 µM | TGI (KM12 colon): > 100 µM | TGI (SF-295 CNS): > 100 µM | TGI (SF-539 CNS): > 100 µM | TGI (HT29 colon): > 100 µM | TGI (HCT-116 colon): > 100 µM | TGI (MCF7 breast): > 100 µM | TGI (MOLT-4 leukemia): > 100 µM | TGI (DU-145 prostate): > 100 µM | TGI (HOP-92 NSCLC): > 100 µM | TGI (HL-60(TB) leukemia): > 100 µM | TGI (SNB-19 CNS): > 100 µM | TGI (LOX IMVI melanoma): > 100 µM | TGI (786-0 renal): > 100 µM | TGI (MDA-MB-231 breast): > 100 µM | TGI (TK-10 renal): > 100 µM | TGI (NCI-H522 lung): > 100 µM | TGI (K-562 leukemia): > 100 µM | TGI (UO-31 renal): > 100 µM | TGI (SW-620 colon): > 100 µM | TGI (HS 578T breast): > 100 µM

COc1ccc(-c2ccc(-c3ccc(C(=N)N)s3)s2)cc1Cl
GI50 (SR leukemia): 0.299 µM | TGI (SR leukemia): 1.34 µM | GI50 (A498 renal): 1.29 µM | TGI (A498 renal): 2.6 µM | GI50 (CCRF-CEM leukemia): 1.81 µM | TGI (CCRF-CEM leukemia): 4.72 µM | GI50 (SK-MEL-5 melanoma): 1.88 µM | TGI (SK-MEL-5 melanoma): 3.52 µM | GI50 (SF-295 CNS): 1.8 µM | TGI (SF-295 CNS): 3.3 µM

CC(C)CNc1nc(-c2ccccc2)nc2ccccc12
GI50 (OVCAR-4 ovarian): 13.5 µM | TGI (OVCAR-4 ovarian): 30 µM | GI50 (UACC-62 melanoma): 14.6 µM | TGI (UACC-62 melanoma): 29.4 µM | GI50 (SK-MEL-2 melanoma): 29.6 µM | TGI (SK-MEL-2 melanoma): > 100 µM | GI50 (NCI/ADR-RES ovarian): 13.4 µM | TGI (NCI/ADR-RES ovarian): 31.4 µM | GI50 (IGROV1 ovarian): 27.4 µM | TGI (IGROV1 ovarian): > 100 µM | GI50 (SR leukemia): 10.1 µM | TGI (SR leukemia): 30.9 µM | GI50 (COLO 205 colon): 14.8 µM | TGI (COLO 205 colon): 40.3 µM | GI50 (OVCAR-5 ovarian): 17.4 µM | TGI (OVCAR-5 ovarian): 32.2 µM | GI50 (HCT-15 colon): > 100 µM | TGI (HCT-15 colon): > 100 µM | GI50 (M14 melanoma): 13.5 µM | TGI (M14 melanoma): 26.4 µM | GI50 (SK-OV-3 ovarian): 15.3 µM | TGI (SK-OV-3 ovarian): 31.3 µM | GI50 (CAKI-1 renal): 15.4 µM | TGI (CAKI-1 renal): 29.8 µM | GI50 (A498 renal): 15.1 µM | TGI (A498 renal): 29.5 µM | GI50 (OVCAR-8 ovarian): 15 µM | TGI (OVCAR-8 ovarian): 31.8 µM | GI50 (NCI-H460 lung): 17.2 µM | TGI (NCI-H460 lung): 41.1 µM | GI50 (SF-268 CNS): 18.3 µM | TGI (SF-268 CNS): 37.4 µM | GI50 (RXF 393 renal): 12.7 µM | TGI (RXF 393 renal): 31.8 µM | GI50 (CCRF-CEM leukemia): 15.3 µM | TGI (CCRF-CEM leukemia): 36.6 µM | GI50 (A549 NSCLC): 15.1 µM | TGI (A549 NSCLC): 31.8 µM | GI50 (ACHN renal): 16 µM | TGI (ACHN renal): 29.5 µM | GI50 (NCI-H23 lung): 17 µM | TGI (NCI-H23 lung): 34.5 µM | GI50 (RPMI-8226 leukemia): 4.31 µM | TGI (RPMI-8226 leukemia): 20.3 µM | GI50 (MALME-3M melanoma): 13.4 µM | TGI (MALME-3M melanoma): 26.4 µM | GI50 (SK-MEL-28 melanoma): 17.3 µM | TGI (SK-MEL-28 melanoma): 32.7 µM | GI50 (SN12C renal): 18.4 µM | TGI (SN12C renal): 38.6 µM | GI50 (HCC-2998 colon): 15.9 µM | TGI (HCC-2998 colon): 29.8 µM | GI50 (U251 CNS): 12.2 µM | TGI (U251 CNS): 24.8 µM | GI50 (OVCAR-3 ovarian): 15.7 µM | TGI (OVCAR-3 ovarian): 31 µM | GI50 (HOP-62 NSCLC): 17.7 µM | TGI (HOP-62 NSCLC): 31.5 µM | GI50 (SK-MEL-5 melanoma): 15.2 µM | TGI (SK-MEL-5 melanoma): 29 µM | GI50 (PC-3 prostate): 17.1 µM | TGI (PC-3 prostate): 34.8 µM | GI50 (T-47D breast): 21.6 µM | TGI (T-47D breast): > 100 µM | GI50 (NCI-H226 lung): 16.9 µM | TGI (NCI-H226 lung): 35 µM | GI50 (MDA-MB-435): 18.5 µM | TGI (MDA-MB-435): 37.9 µM | GI50 (KM12 colon): 12.7 µM | TGI (KM12 colon): 26.4 µM | GI50 (SF-295 CNS): 14.5 µM | TGI (SF-295 CNS): 28.9 µM | GI50 (HCT-116 colon): 13.8 µM | TGI (HCT-116 colon): 26.7 µM | GI50 (MCF7 breast): 18.6 µM | TGI (MCF7 breast): 44.4 µM | GI50 (MOLT-4 leukemia): 13.7 µM | TGI (MOLT-4 leukemia): 38.1 µM | GI50 (DU-145 prostate): 14.8 µM | TGI (DU-145 prostate): 28.2 µM | GI50 (HOP-92 NSCLC): 12.3 µM | TGI (HOP-92 NSCLC): 28.6 µM | GI50 (SNB-19 CNS): 19.2 µM | TGI (SNB-19 CNS): 39.6 µM | GI50 (LOX IMVI melanoma): 14.7 µM | TGI (LOX IMVI melanoma): 28.3 µM | GI50 (786-0 renal): 14.4 µM | TGI (786-0 renal): 27.5 µM | GI50 (TK-10 renal): 13.6 µM | TGI (TK-10 renal): 26.6 µM | GI50 (NCI-H522 lung): 26.3 µM | TGI (NCI-H522 lung): > 100 µM | GI50 (K-562 leukemia): 11.1 µM | TGI (K-562 leukemia): 30.8 µM | GI50 (UO-31 renal): 17.3 µM | TGI (UO-31 renal): 50.5 µM | GI50 (HS 578T breast): 16.5 µM | TGI (HS 578T breast): 33.9 µM
